Values after ≈ are worked out from the molar mass of the structure shown.
How the values were obtained:
Experiment in all cases: Antimicrobial activity test
Format in all cases: cell-based
[1] = tested on: Bacillus subtilis IFO3021; conditions: Bacterium 3, 24 hours
Procedure: (§1) The antimicrobial activities of DGE against Escherichia coli W3110 (Bacterium 1), Salmonella typhimurium LT2 (Bacterium 2), Bacillus subtilis IFO3021 (Bacterium 3), Pseudomonas aeruginosa IFO3080 (Bacterium 4) and Streptococcus mutans GS5 (Bacterium 5) were examined as follows.
(§2) The Bacteria 1 to 4 were cultured overnight in L-broth. The cultures were diluted to a concentration of about 2×10^5 cells/180 μl with Sensitive Bouillon medium (Nissui) base on the turbidity. The Bacterium 5 was cultured overnight in Brain Heart Infusion medium. The culture was diluted to a concentration of about 2×10^5 cells/180 μl with Brain Heart Infusion medium based on the turbidity. 180 μl of each bacterial dilution was placed in each well of a 96-well microtiter plate. On the other hand, the respective bacterial dilutions were further diluted and spread onto plates of L-broth or Brain Heart Infusion medium. The plates were incubated at 37° C. overnight. The resulting colonies were counted to determine the stating viable cell numbers.
(§3) A 14.4 mg/ml DGE solution was diluted every 2-folds to prepare serial dilutions. 20 μl each of the dilutions was placed in the well in which the bacterial dilution had been placed. The cells were cultured at 37° C. for 24 hours without shaking. After cultivation, the turbidity of each culture was measured.
(§4) Furthermore, the culture from the well for which the growth of bacterial cells was not observed was spread onto plates. After the plates were incubated at 37° C. overnight, the colony number was counted to determine the viable cell number. […] The minimal growth-inhibitory concentrations and the minimal bacteriocidal concentrations of DGE for the Bacteria 1 to 5 were determined as shown in Table 2.

Streptococcus mutans GS5 = conditions: Bacterium 5, 24 hours
Procedure: as §1, §2, §3, §4

[2] = tested on: Pseudomonas aeruginosa IFO3080; conditions: Bacterium 4, 24 hours
Procedure: as §1, §2, §3, §4

[3] = tested on: Salmonella typhimurium LT2; conditions: Bacterium 2, 24 hours
Procedure: as §1, §2, §3, §4

Escherichia coli W3110 = conditions: Bacterium 1, 24 hours
Procedure: as §1, §2, §3, §4

Work on `O=C1C=CC(CO)OC1O` [DGE, L-glycero-1,5-epoxy-1αβ,6-dihydroxy-cis-hex-3-en-2-one] yielded an MIC ([1]; Bacillus subtilis, IFO3021, read-out: Minimal growth-inhibitory concentration) of 360 µg/mL (≈ 2500 µM), a Minimal bacteriocidal concentration [1] of 720 µg/mL and a Minimal bacteriocidal concentration (Streptococcus mutans GS5) of 180 µg/mL. The MIC (Streptococcus mutans GS5; Streptococcus mutans, GS5, read-out: Minimal growth-inhibitory concentration) was 90 µg/mL (≈ 624 µM), the Minimal bacteriocidal concentration [2] was 720 µg/mL and the MIC ([2]; Pseudomonas aeruginosa, IFO3080, read-out: Minimal growth-inhibitory concentration) was 360 µg/mL (≈ 2500 µM). For the same compound, the Minimal bacteriocidal concentration [3] was 720 µg/mL, the MIC ([3]; Salmonella enterica, TYPHIMURIUM, read-out: Minimal growth-inhibitory concentration) was 360 µg/mL (≈ 2500 µM) and the Minimal bacteriocidal concentration (Escherichia coli W3110) was 720 µg/mL. For the same compound, the MIC (Escherichia coli W3110; Escherichia coli, W3110, read-out: Minimal growth-inhibitory concentration) was 360 µg/mL (≈ 2500 µM).
